Laboratory results from US20040024024A1, “Aromatic sulfone hydroxamates and their use as protease inhibitors” (priority 2001, published 2004).
pIC50: −log10 of the molar value.

Assays:
Assay in all cases: In vitro MMP inhibition, IC50 determination (fluorogenic substrate I)
Assay type in all cases: biochemical
Human recombinant MMP-1 = biological target: T1, Human recombinant MMP-1 (Homo sapiens, UniProt P03956); settings: value outside parentheses (Ki in parenthesis)
T1 construct: made in house; host or cells: MMP-1-transfected HT-1080 cells (spent media)
T1 sequence (P03956 100-469): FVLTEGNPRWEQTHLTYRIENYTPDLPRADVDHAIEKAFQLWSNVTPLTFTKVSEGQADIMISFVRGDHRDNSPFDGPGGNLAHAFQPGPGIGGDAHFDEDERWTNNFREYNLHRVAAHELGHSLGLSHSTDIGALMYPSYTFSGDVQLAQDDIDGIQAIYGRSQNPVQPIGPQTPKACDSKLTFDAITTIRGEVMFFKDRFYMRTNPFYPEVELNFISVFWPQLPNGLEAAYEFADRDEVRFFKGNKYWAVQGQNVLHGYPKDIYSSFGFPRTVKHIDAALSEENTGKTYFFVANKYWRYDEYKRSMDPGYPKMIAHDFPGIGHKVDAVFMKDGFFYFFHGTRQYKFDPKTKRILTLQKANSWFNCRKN
Method: (§1) Several hydroxamates and salts thereof were analyzed in in vitro assays to determine their ability to inhibit the MMP cleavage of peptide substrates. Inhibition (Ki) and IC50 constants were calculated from the assayed hydroxamate-MMP interactions.
(§2) Human recombinant MMP-1, MMP-2, MMP-9, MMP-13, and MMP-14 were used in this assay. All enzymes were prepared in Assignee's laboratories following usual laboratory procedures. Protocols for the preparation and use of these enzymes are available in the scientific literature. See, e.g., Enzyme Nomenclature (Academic Press, San Diego, Calif., 1992) (and the citations therein). See also, Frije et al., J. Biol. Chem., 26(24), 16766-73 (1994).
The MMP-1 proenzyme was purified from the spent media of MMP-1-transfected HT-1080 cells provided by Dr. Harold Welgus of Washington University (St. Louis, Mo.). The protein was purified on a zinc chelating column.
(§3) All MMPs were activated using 4-aminophenylmercuric acetate (“APMA”, Sigma Chemical, St. Louis, Mo.) or trypsin. MMP-9 also was activated using human recombinant MMP-3 (purified in Assignee's laboratory following standard cloning and purification techniques).
(§4) Two fluorogenic, methoxycoumarin-containing polypeptide substrates were used in the MMP inhibition assays:
(§5) MCA-ProLeuGlyLeuDpaAlaArgNH2 (I)
(§6) Here, “Dpa” is 3-(2,4-dinitrophenyl)-L-2,3-diaminopropionyl group, and “MCA” is 7-methoxycoumarin-4-yl acetyl. Substrate (I) was purchased from Baychem (Redwood City, Calif.), and substrate II was prepared Assignee's laboratory. Substrate I was used in the IC50 determination assays, while substrate II was used in the Ki determination assays. In the absence of MMP inhibitory activity, either substrate is cleaved at the Gly-Leu peptide bond. This cleavage separates the highly fluorogenic peptide from the 2,4-dinitrophenyl quencher, thus resulting in increase of fluorescent intensity.
(§7) The stock solutions of the assayed hydroxamates (or salts thereof) were prepared in 1% dimethyl sulfoxide (DMSO). These stock solutions were diluted in Buffer A (100 mM Tris-HCl, 100 mM NaCl, 10 mM CaCl2, 0.05% polyoxyethylene 23 lauryl ether, pH 7.5) to obtain solutions with different hydroxamate concentrations, i.e., assay solutions with different concentrations of the assayed MMP inhibitory compound. The experiment controls contained the same amount of Buffer A/DMSO as the assayed sample, but contained no hydroxamate (or salt thereof).
(§8) The assays from which the IC50 determinations were made were performed as follows. The MMPs were activated with either trypsin or APMA (4-aminophenylmercuric acetate, Sigma Chemical, St. Louis, Mo.). The assayed hydroxamate samples were, incubated in Microfluorrm White Plates (Dynatech, Chantilly, VA) and analyzed on a Perkin Elmer L550 plate reader (Norwalk, Conn.). The excitation wavelength was 328 nm, and the emission wavelength—415 nm. All samples (assayed hydroxamates and controls) were incubated in separate plates at room temperature in the presence of 4 μM of MMP substrate (I). As stated in the previous paragraph, samples containing varying concentrations of the same assayed hydroxamate were prepared. Inhibition was measured as a reduction in fluorescent intensity as a function of MMP inhibitor concentration.

Human recombinant MMP-13 = biological target: T2, Human recombinant MMP-13 (Homo sapiens, UniProt P45452)
T2 construct: made in house; host or cells: baculovirus / insect cells
Summary of the method: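 Fluorescence at 415 nm (excitation 328 nm) reports Gly-Leu cleavage of 4 μM quenched methoxycoumarin peptide substrate I. Human recombinant MMP-13, activated by trypsin or APMA, was incubated at room temperature with varied inhibitor concentrations in pH 7.5 Tris/NaCl/CaCl2 buffer; IC50 derived from reduced fluorescence.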

Human recombinant MMP-2 = biological target: T3, Human recombinant MMP-2 (Homo sapiens, UniProt P08253)
T3 construct: made in house; host or cells: MMP-2-transfected p2AHT2 cells
T3 sequence (P08253 110-660): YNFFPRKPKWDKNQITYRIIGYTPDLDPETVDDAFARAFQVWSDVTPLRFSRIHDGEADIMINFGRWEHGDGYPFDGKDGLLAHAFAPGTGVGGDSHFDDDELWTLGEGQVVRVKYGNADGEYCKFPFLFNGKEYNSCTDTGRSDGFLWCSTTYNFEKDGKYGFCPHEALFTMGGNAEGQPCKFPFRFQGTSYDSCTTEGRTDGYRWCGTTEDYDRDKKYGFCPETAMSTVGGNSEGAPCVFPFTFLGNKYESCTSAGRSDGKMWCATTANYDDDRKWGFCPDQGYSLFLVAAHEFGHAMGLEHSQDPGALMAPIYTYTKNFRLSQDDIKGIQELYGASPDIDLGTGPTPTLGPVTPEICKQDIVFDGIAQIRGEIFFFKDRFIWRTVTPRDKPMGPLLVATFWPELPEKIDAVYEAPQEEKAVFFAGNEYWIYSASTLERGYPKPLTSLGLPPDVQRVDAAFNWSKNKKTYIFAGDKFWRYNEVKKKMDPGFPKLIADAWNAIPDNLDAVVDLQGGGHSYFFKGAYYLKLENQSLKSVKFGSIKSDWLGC
Summary of the method: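 IC50 was derived from the concentration-dependent fall in fluorescence (ex 328, em 415 nm) on Gly-Leu cleavage of 4 μM MCA/Dpa-quenched substrate I. Assays ran at room temperature in pH 7.5 Tris/NaCl/CaCl2/Brij buffer with MMP-2 activated by trypsin or APMA; inhibitors were diluted from 1% DMSO stocks.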

Human recombinant MMP-9 = biological target: T4, Human recombinant MMP-9 (Homo sapiens, UniProt P14780)
T4 construct: made in house; host or cells: MMP-9-transfected HT1080 cells (spent media)
T4 sequence (P14780 107-707 limits assumed): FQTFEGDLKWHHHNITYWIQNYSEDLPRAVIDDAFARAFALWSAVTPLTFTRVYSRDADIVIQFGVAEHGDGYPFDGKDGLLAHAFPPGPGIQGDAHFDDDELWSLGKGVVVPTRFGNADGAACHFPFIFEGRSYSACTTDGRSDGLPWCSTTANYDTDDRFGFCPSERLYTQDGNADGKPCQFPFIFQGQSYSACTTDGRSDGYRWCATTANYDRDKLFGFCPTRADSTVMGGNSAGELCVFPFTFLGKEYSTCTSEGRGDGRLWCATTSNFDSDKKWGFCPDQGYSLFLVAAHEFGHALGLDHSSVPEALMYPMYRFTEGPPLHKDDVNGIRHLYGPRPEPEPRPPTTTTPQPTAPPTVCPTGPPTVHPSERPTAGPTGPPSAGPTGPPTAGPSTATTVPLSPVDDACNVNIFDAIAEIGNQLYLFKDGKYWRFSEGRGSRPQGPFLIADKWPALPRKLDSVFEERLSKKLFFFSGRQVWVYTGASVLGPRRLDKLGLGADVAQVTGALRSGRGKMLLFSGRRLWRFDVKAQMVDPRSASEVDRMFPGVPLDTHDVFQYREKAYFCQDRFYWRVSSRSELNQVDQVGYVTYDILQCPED
Method: as §1, §2
The MMP-9 proenzyme was purified by gelatin Sepharose chromatography from spent media of MMP-9-transfected HT1080 cells provided by Dr. Howard Welgus of Washington University (St. Louis, Mo.).
as §3, §4, §5, §6, §7, §8

Human recombinant MMP-14 = biological target: T5, Human recombinant MMP-14 (Homo sapiens, UniProt P50281); settings: value outside parentheses
T5 construct: The catalytic domain enzyme was expressed in E. coli inclusion bodies, solubilized in urea; made in house
Method: as §1, §2
The MMP-14 full length cDNA was provided by Dr. Gregory Goldberg of Washington University (St. Louis, Mo.). The catalytic domain enzyme was expressed in E. coli inclusion bodies, solubilized in urea, purified on a preparative […] reverse phase HPLC column, and then refolded in the presence of zinc acetate and purified for use.
as §3, §4, §5, §6, §7, §8

[1] = value outside parentheses (Ki in parenthesis)

SMILES | pIC50 (Human recombinant MMP-1) | pIC50 (Human recombinant MMP-13; [1]) | pIC50 (Human recombinant MMP-2; [1]) | pIC50 (Human recombinant MMP-13; value outside parenthesis) | other results
O=C(Cc1cccs1)NCCOc1ccc(S(=O)(=O)C2(C(=O)NO)CCOCC2)cc1 [Example 617] |  |  |  |  | pIC50 (Human recombinant MMP-9; value outside parentheses): 6.38; pIC50 (Human recombinant MMP-14): 5.38; pIC50 (Human recombinant MMP-13; value outside parentheses): 9.22; pIC50 (Human recombinant MMP-2; value outside parentheses): 9.10
O=C(NO)C1(S(=O)(=O)c2ccc(OCCCOCc3cc(C(F)(F)F)cc(C(F)(F)F)c3)cc2)CCOCC1 [Example 454] | < 5.00 | 7.57 | 6.78 |  | 
O=C1CN(c2ccccc2)C(=O)N1CCCOc1ccc(S(=O)(=O)C2(C(=O)NO)CCOCC2)cc1 [Example 263] |  |  |  | 8.42 | pIC50 (Human recombinant MMP-9; value outside parenthesis): 5.49
CCCCCN(C)c1ccc(S(=O)(=O)C2(C(=O)NO)CCOCC2)cc1 [Example 459] | < 5.00 | 6.17 | 6.15 |  | 
CC(C)OCCCNc1ccc(S(=O)(=O)C2(C(=O)NO)CCOCC2)cc1 [Example 461] | < 5.00 | 6.23 | 5.66 |  | 
COCCN1CCC(C(=O)NO)(S(=O)(=O)c2ccc(OCCCn3nnc(-c4ccccc4C)n3)cc2)CC1 [Example 151] |  |  |  | 8.59 | pIC50 (Human recombinant MMP-2; value outside parenthesis): 7.42
COCCN1CCC(C(=O)NO)(S(=O)(=O)c2ccc(OCCCn3nnc(-c4ccc(S(C)(=O)=O)cc4)n3)cc2)CC1 [Example 104] |  |  |  | 9.10 | pIC50 (Human recombinant MMP-2; value outside parenthesis): 7.35
C[C@H]1C(=O)N(CCCOc2ccc(S(=O)(=O)C3(C(=O)NO)CCOCC3)cc2)C(=O)N1c1ccccc1 [Example 177] |  |  |  | 7.77 | pIC50 (Human recombinant MMP-2; value outside parenthesis): 6.48
O=C(NO)C1(S(=O)(=O)c2ccc(OCCCCCN3CCCc4ccccc43)cc2)CCOCC1 [Example 414] |  | 7.85 | 7.43 |  | 
O=C(NCCOc1ccc(S(=O)(=O)C2(C(=O)NO)CCOCC2)cc1)c1ccc(-c2cccc(C(F)(F)F)c2)o1 [Example 610] |  |  |  |  | pIC50 (Human recombinant MMP-13; value outside parentheses): 8.39; pIC50 (Human recombinant MMP-2; value outside parentheses): 6.31
CCOc1ccc(-c2noc(CCCOc3ccc(S(=O)(=O)C4(C(=O)NO)CCOCC4)cc3)n2)cc1 [Example 275] |  |  |  | 8.77 | pIC50 (Human recombinant MMP-2; value outside parenthesis): 6.94

Further lines, with some results ahead:

pIC50 (Human recombinant MMP-1) | pIC50 (Human recombinant MMP-13; [1]) | pIC50 (Human recombinant MMP-2; [1]) | pIC50 (Human recombinant MMP-13; value outside parenthesis) | SMILES | other results
< 5.00 | 7.22 | 6.84 |  | CC(CCOc1ccc(S(=O)(=O)C2(C(=O)NO)CCOCC2)cc1)CC(C)(C)C (stereo not drawn) [Example 469] | 
< 5.00 | 8.52 | 7.92 |  | COC(C)(C)CCCC(C)CCOc1ccc(S(=O)(=O)C2(C(=O)NO)CCOCC2)cc1 (stereo not drawn) [Example 474] | 
< 5.00 | 5.82 | 5.60 |  | CC(C)(CCc1ccccc1)Oc1ccc(S(=O)(=O)C2(C(=O)NO)CCOCC2)cc1 [Example 468] | 
